According to PMC9898036, “VIP152 is a selective CDK9 inhibitor with pre-clinical in vitro and in vivo efficacy in chronic lymphocytic leukemia” (Leukemia, 2022):

What was measured:
Type in all cases: binding
[1] = target: RIPK2 (Homo sapiens, UniProt O43353); assay: KINOMEscan: RIPK2; details: 100 nM, read-out: Percent Control
[2] = target: human kinome (Homo sapiens, UniProt Q8IW41); assay: DiscoverX KINOMEscan kinase profiling (468 assays); details: MAPKAPK5; 100 nM; read-out: Percent Control
How it was run: (§1)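 VIP152 was run in DMSO, alongside a DMSO control. Readout was qPCR of DNA-tagged kinase still bound to bead-immobilized biotinylated kinase ligands after compound competition.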

[3] = target: human kinome (Homo sapiens, UniProt P25098); assay: DiscoverX KINOMEscan kinase profiling (468 assays); details: GRK2 (Entrez ADRBK1); 100 nM; read-out: Percent Control
How it was run: as §1

[4] = target: human kinome (Homo sapiens, UniProt P42336, E545K); assay: DiscoverX KINOMEscan kinase profiling (468 assays); details: read-out: Percent Control
How it was run: as §1

[5] = target: human kinome (Homo sapiens, UniProt O75914); assay: DiscoverX KINOMEscan kinase profiling (468 assays); details: read-out: Percent Control
How it was run: as §1

[6] = target: human kinome (Homo sapiens, UniProt Q9H4B4); assay: DiscoverX KINOMEscan kinase profiling (468 assays); details: read-out: Percent Control
How it was run: as §1

[7] = target: human kinome (Homo sapiens, UniProt P42336, C420R); assay: DiscoverX KINOMEscan kinase profiling (468 assays); details: read-out: Percent Control
How it was run: as §1

[8] = target: human kinome (Homo sapiens, UniProt Q16513); assay: DiscoverX KINOMEscan kinase profiling (468 assays); details: read-out: Percent Control
How it was run: as §1

[9] = target: human kinome (Homo sapiens, UniProt Q9Y6M4); assay: DiscoverX KINOMEscan kinase profiling (468 assays); details: CSNK1G3; 100 nM; read-out: Percent Control
How it was run: as §1

[10] = target: human kinome (Homo sapiens, UniProt Q6P2M8); assay: DiscoverX KINOMEscan kinase profiling (468 assays); details: CAMK1B (Entrez PNCK); 100 nM; read-out: Percent Control
How it was run: as §1

[11] = target: human kinome (Homo sapiens, UniProt Q15759); assay: DiscoverX KINOMEscan kinase profiling (468 assays); details: read-out: Percent Control
How it was run: as §1

[12] = target: human kinome (Homo sapiens, UniProt Q9NQU5); assay: DiscoverX KINOMEscan kinase profiling (468 assays); details: read-out: Percent Control
How it was run: as §1

[13] = target: human kinome (Homo sapiens, UniProt Q13546); assay: DiscoverX KINOMEscan kinase profiling (468 assays); details: kinase RIPK1 (Entrez RIPK1); compound concentration 1000 nM; read-out: Percent Control
How it was run: as §1

[14] = target: human kinome (Homo sapiens, UniProt P10721, A829P); assay: DiscoverX KINOMEscan kinase profiling (468 assays); details: KIT(A829P); 100 nM; read-out: Percent Control
How it was run: as §1

[15] = target: human kinome (Homo sapiens, UniProt Q8NE63); assay: DiscoverX KINOMEscan kinase profiling (468 assays); details: HIPK4; 100 nM; read-out: Percent Control
How it was run: as §1

[16] = target: human kinome (Homo sapiens, UniProt Q8TDX7); assay: DiscoverX KINOMEscan kinase profiling (468 assays); details: read-out: Percent Control
How it was run: as §1

[17] = target: human kinome (Homo sapiens, UniProt Q9Y2H9); assay: DiscoverX KINOMEscan kinase profiling (468 assays); details: MAST1; 100 nM; read-out: Percent Control
How it was run: as §1

[18] = target: human kinome (Homo sapiens, UniProt P04049); assay: DiscoverX KINOMEscan kinase profiling (468 assays); details: read-out: Percent Control
How it was run: as §1

[19] = target: human kinome (Homo sapiens, UniProt Q8WTQ7); assay: DiscoverX KINOMEscan kinase profiling (468 assays); details: GRK7; 100 nM; read-out: Percent Control
How it was run: as §1

[20] = target: human kinome (Homo sapiens, UniProt P14616); assay: DiscoverX KINOMEscan kinase profiling (468 assays); details: INSRR; 100 nM; read-out: Percent Control
How it was run: as §1

[21] = tested on: human kinome; assay: DiscoverX KINOMEscan kinase profiling (468 assays); details: for Percent Control: 100 nM
How it was run: as §1

[22] = target: human kinome (Homo sapiens, UniProt P04629); assay: DiscoverX KINOMEscan kinase profiling (468 assays); details: kinase TRKA (Entrez NTRK1); compound concentration 1000 nM; read-out: Percent Control
How it was run: as §1

[23] = target: human kinome (Homo sapiens, UniProt Q9UKI8); assay: DiscoverX KINOMEscan kinase profiling (468 assays); details: kinase TLK1 (Entrez TLK1); compound concentration 1000 nM; read-out: Percent Control
How it was run: as §1

[24] = target: human kinome (Homo sapiens, UniProt P00533, L861Q); assay: DiscoverX KINOMEscan kinase profiling (468 assays); details: EGFR(L861Q); 100 nM; read-out: Percent Control
How it was run: as §1

[25] = target: human kinome (Homo sapiens, UniProt O00750); assay: DiscoverX KINOMEscan kinase profiling (468 assays); details: read-out: Percent Control
How it was run: as §1

[26] = target: human kinome (Homo sapiens, UniProt Q08345); assay: DiscoverX KINOMEscan kinase profiling (468 assays); details: DDR1; 100 nM; read-out: Percent Control
How it was run: as §1

[27] = target: DRAK1 (Homo sapiens, UniProt Q9UEE5); assay: KINOMEscan: DRAK1; details: 1000 nM, read-out: Percent Control
[28] = target: TEC (Homo sapiens, UniProt P42680); assay: KINOMEscan: TEC; details: 100 nM, read-out: Percent Control
[29] = target: YANK1 (Homo sapiens, UniProt Q8WU08); assay: KINOMEscan: YANK1; details: 100 nM, read-out: Percent Control
Chain of YANK1 (Q8WU08 whole entry): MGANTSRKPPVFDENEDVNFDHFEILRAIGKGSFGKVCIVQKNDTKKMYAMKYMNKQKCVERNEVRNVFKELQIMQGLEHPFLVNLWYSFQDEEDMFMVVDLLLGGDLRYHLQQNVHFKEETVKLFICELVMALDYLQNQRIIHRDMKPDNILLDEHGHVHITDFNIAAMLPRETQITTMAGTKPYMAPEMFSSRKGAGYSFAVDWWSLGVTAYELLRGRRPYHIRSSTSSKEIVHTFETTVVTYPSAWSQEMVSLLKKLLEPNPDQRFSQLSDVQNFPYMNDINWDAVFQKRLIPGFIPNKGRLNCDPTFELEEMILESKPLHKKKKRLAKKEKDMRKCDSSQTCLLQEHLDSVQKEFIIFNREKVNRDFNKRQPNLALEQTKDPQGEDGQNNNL

Chain of human kinome (Homo sapiens, UniProt P04049) (P04049 whole entry): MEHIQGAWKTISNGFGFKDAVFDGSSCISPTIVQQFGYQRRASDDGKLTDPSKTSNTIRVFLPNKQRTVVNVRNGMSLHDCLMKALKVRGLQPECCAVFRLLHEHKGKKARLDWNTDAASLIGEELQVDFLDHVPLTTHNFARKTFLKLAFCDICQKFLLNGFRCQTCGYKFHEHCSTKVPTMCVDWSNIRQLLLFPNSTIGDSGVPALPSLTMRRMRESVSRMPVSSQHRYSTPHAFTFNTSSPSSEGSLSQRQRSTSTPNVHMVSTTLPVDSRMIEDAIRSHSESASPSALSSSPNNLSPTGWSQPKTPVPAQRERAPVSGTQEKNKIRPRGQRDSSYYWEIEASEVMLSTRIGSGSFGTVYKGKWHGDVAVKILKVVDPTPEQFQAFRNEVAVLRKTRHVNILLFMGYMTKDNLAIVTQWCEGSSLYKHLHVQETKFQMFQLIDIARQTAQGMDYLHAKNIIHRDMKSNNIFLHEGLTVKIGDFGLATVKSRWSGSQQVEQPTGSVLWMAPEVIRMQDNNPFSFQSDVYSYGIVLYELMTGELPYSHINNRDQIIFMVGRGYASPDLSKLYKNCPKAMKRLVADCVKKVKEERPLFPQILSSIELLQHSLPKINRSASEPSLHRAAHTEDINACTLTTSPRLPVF
Chain of human kinome (Homo sapiens, UniProt Q9H4B4) (Q9H4B4 whole entry): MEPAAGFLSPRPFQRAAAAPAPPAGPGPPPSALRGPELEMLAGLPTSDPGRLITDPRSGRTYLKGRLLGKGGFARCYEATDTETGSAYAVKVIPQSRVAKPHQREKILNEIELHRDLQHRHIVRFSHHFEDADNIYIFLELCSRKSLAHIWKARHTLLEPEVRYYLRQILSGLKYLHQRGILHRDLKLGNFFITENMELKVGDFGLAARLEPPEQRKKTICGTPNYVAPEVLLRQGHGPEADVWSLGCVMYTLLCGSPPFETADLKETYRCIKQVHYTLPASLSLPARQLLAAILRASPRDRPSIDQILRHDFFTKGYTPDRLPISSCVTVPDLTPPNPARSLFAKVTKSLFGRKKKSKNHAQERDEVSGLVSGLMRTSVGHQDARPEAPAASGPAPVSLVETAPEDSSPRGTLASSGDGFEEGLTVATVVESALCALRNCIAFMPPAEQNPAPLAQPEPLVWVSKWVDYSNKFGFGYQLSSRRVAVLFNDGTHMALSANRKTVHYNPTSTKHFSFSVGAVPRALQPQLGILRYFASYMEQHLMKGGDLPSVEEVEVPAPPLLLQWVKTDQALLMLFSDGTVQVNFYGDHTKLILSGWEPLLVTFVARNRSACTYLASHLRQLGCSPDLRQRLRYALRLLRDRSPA
Chain of human kinome (Homo sapiens, UniProt P42336, C420R) (P42336 whole entry C420R): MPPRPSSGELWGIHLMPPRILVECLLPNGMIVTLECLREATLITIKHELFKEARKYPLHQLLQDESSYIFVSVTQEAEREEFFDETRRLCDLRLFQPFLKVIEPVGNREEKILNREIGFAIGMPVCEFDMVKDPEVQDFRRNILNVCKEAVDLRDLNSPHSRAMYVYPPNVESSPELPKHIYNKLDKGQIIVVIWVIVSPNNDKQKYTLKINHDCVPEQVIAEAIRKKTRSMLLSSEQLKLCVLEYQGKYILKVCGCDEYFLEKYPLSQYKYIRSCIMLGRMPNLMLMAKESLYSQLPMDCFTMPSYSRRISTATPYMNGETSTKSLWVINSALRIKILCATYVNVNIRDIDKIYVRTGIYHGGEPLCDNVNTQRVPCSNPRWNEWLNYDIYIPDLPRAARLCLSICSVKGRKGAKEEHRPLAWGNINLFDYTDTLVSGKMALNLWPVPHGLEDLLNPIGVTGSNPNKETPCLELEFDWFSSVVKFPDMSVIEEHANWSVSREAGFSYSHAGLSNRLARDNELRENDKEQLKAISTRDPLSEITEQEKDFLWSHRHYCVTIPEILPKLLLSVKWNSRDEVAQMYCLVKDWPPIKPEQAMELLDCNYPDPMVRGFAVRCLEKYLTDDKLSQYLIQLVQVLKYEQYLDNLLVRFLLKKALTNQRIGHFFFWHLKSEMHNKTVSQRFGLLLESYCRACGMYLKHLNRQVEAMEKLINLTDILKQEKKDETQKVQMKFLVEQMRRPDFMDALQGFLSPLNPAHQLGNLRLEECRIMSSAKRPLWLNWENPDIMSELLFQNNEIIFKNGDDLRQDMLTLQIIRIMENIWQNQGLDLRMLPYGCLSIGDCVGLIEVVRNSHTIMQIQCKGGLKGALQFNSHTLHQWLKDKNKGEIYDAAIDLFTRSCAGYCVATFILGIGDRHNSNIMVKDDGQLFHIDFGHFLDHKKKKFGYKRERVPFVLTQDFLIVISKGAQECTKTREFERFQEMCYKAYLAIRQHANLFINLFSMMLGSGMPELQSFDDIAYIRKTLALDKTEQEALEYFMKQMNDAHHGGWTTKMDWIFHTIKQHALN
Chain of human kinome (Homo sapiens, UniProt Q8TDX7) (Q8TDX7 whole entry): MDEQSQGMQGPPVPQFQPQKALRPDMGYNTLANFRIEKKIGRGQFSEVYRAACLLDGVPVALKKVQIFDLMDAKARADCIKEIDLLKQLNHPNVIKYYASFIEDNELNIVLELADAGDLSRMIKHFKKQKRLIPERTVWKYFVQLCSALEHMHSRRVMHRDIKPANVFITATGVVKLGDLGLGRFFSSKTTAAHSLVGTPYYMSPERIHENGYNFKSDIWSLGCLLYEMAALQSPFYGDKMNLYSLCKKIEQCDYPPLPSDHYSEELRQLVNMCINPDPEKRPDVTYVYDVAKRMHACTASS
Chain of human kinome (Homo sapiens, UniProt O75914) (O75914 whole entry): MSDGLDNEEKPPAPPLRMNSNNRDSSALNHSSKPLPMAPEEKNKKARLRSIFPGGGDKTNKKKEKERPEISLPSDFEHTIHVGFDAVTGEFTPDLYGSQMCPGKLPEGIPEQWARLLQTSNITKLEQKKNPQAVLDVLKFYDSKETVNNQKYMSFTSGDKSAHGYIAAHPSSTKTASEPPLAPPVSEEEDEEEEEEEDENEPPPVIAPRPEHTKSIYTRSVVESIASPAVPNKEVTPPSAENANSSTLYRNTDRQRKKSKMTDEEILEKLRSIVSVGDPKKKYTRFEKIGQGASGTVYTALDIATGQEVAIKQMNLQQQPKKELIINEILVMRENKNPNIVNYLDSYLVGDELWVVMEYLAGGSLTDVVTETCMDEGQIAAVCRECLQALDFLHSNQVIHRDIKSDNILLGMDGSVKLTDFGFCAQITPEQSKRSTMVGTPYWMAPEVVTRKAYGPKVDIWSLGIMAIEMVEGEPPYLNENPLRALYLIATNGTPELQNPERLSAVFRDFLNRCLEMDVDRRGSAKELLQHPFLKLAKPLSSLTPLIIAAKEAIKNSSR
Chain of human kinome (Homo sapiens, UniProt Q15759) (Q15759 whole entry): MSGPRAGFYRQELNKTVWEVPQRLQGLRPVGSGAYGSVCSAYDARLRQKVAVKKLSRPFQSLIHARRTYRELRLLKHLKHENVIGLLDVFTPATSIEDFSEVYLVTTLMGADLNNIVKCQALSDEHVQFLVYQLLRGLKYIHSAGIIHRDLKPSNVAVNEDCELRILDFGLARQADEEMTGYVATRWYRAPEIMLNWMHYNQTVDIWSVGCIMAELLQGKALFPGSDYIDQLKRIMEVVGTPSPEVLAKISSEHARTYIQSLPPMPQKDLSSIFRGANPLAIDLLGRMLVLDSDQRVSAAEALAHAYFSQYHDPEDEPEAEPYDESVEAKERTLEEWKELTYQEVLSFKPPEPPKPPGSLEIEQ
Chain of human kinome (Homo sapiens, UniProt Q16513) (Q16513 whole entry): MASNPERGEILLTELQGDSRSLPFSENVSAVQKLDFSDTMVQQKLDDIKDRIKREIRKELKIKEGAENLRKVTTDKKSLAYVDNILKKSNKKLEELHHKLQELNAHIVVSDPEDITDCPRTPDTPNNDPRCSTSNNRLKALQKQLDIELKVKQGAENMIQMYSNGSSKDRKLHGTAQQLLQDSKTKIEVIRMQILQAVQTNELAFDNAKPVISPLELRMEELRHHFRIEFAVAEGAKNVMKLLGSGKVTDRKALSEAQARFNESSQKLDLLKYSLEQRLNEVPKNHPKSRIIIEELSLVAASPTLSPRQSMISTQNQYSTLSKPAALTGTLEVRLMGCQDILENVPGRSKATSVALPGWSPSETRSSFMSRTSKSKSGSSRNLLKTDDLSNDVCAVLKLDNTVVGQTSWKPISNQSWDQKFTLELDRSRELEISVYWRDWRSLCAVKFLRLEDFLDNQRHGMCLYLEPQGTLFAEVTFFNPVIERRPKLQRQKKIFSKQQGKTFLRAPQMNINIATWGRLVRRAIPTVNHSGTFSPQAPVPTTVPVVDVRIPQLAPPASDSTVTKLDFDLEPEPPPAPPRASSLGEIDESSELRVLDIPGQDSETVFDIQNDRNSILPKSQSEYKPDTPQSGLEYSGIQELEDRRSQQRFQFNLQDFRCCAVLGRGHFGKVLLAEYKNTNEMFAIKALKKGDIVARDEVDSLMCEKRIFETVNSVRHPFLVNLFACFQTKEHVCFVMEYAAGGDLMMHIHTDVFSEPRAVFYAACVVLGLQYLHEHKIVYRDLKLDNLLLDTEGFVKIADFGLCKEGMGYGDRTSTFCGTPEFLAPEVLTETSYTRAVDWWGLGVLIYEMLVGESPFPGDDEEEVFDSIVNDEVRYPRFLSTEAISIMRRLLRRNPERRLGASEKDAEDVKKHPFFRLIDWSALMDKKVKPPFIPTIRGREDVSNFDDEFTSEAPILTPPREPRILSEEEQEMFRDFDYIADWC
Chain of human kinome (Homo sapiens, UniProt P42336, E545K) (P42336 whole entry E545K): as the sequence (P42336 whole entry C420R) above, with R420C, E545K counted along it

## COc1cc(F)ccc1-c1cc(Nc2cc(CS(C)(=N)=O)ccn2)ncc1F (stereo not drawn) [VIP152]
[1]
  remaining binding at 0.1 µM: 100%
[2]
  remaining binding at 0.1 µM: 100%
[3]
  remaining binding at 0.1 µM: 100%
[4]; PIK3CA(E545K), 100 nM
  remaining binding at 0.1 µM: 92%
[4]; kinase PIK3CA(E545K) (Entrez PIK3CA), compound concentration 1000 nM
  remaining binding at 1 µM: 93%
[5]; PAK3, 100 nM
  remaining binding at 0.1 µM: 100%
[5]; kinase PAK3 (Entrez PAK3), compound concentration 1000 nM
  remaining binding at 1 µM: 62%
[6]; PLK3, 100 nM
  remaining binding at 0.1 µM: 91%
[6]; kinase PLK3 (Entrez PLK3), compound concentration 1000 nM
  remaining binding at 1 µM: 92%
[7]; PIK3CA(C420R), 100 nM
  remaining binding at 0.1 µM: 98%
[7]; kinase PIK3CA(C420R) (Entrez PIK3CA), compound concentration 1000 nM
  remaining binding at 1 µM: 92%
[8]; PKN2, 100 nM
  remaining binding at 0.1 µM: 96%
[8]; kinase PKN2 (Entrez PKN2), compound concentration 1000 nM
  remaining binding at 1 µM: 92%
[9]
  remaining binding at 0.1 µM: 98%
[10]
  remaining binding at 0.1 µM: 87%
[11]; kinase p38-beta (Entrez MAPK11), compound concentration 1000 nM
  remaining binding at 1 µM: 100%
[11]; p38-beta (Entrez MAPK11), 100 nM
  remaining binding at 0.1 µM: 100%
[12]; PAK6, 100 nM
  remaining binding at 0.1 µM: 100%
[12]; kinase PAK6 (Entrez PAK6), compound concentration 1000 nM
  remaining binding at 1 µM: 91%
[13]
  remaining binding at 1 µM: 79%
[14]
  remaining binding at 0.1 µM: 100%
[15]
  remaining binding at 0.1 µM: 100%
[16]; NEK7, 100 nM
  remaining binding at 0.1 µM: 100%
[16]; kinase NEK7 (Entrez NEK7), compound concentration 1000 nM
  remaining binding at 1 µM: 94%
[17]
  remaining binding at 0.1 µM: 94%
[18]; RAF1, 100 nM
  remaining binding at 0.1 µM: 100%
[18]; kinase RAF1 (Entrez RAF1), compound concentration 1000 nM
  remaining binding at 1 µM: 96%
[19]
  remaining binding at 0.1 µM: 100%
[20]
  remaining binding at 0.1 µM: 100%
[21]; @100nM, 468 Assays Tested
  Interactions Mapped: 4
[21]; EGFR(L747-E749del, A750P)
  Percent Control: 100%
[21]; EGFR(L747-S752del, P753S)
  Percent Control: 93%
[21]; EGFR(L747-T751del,Sins)
  Percent Control: 100%
[21]; FLT3(ITD)
  Percent Control: 100%
[21]; FLT3(ITD,D835V)
  Percent Control: 100%
[21]; FLT3(ITD,F691L)
  Percent Control: 99%
[22]
  remaining binding at 1 µM: 9.8%
[23]
  remaining binding at 1 µM: 89%
[24]
  remaining binding at 0.1 µM: 100%
[25]; PIK3C2B, 100 nM
  remaining binding at 0.1 µM: 100%
[25]; kinase PIK3C2B (Entrez PIK3C2B), compound concentration 1000 nM
  remaining binding at 1 µM: 90%
[26]
  remaining binding at 0.1 µM: 99%
[27]
  remaining binding at 1 µM: 71%
[28]
  remaining binding at 0.1 µM: 100%
[29]
  remaining binding at 0.1 µM: 100%
